From patent US4929736A, “Latent isocynate derivatives useful for deactivating enzymes” (Board of Trustees of the Wichita State University, priority 1986, dated 1990)
Entries after “also recorded” stand apart in the source; their conditions may differ. Read-outs that look alike come from different tables or passages of the source. Values belong to the compound of their own block, whether it stands above or below them.

Assays:
[1] = molecular target: Porcine pancreatic elastase (PPE) (Sus scrofa, UniProt P00772); test: Spectrophotometric assay of PPE inactivation (in vitro); type: biochemical; details: for kinact/KI: Table I azolides, read-out: Porcine pancreatic elastase k3 /Ki
Procedure: The enzyme assays used to evaluate the potency of the inhibitors in vitro were performed as follows: PPE was assayed spectrophotometrically at 347.5 nm with (tert-butoxycarbonyl)-alanyl-p-nitrophenol in 0.05 M phosphate buffer, pH 6.5, 25° C., or by using succinyl-L-trialanyl-p-nitroanilide in 0.1 M Tris buffer, pH 8.0, at 410 nm. HLE was assayed spectrophotometrically at 410 nm with succinyl-L-trialanyl-p-nitroanilide or methoxy succinyl ala-ala-pro-val-p-nitroanilide (As describe by K. Wakajima et al in the J. Biol. Chem, 254, 4027-4032 (1979) and T. Teshima et al, in J. Biol. Chem 257, 5085-5091 (1982). The potency of an inhibitor is determined by obtaining a kinetic determination of the bimolecular rate constant K3 /Ki (or Robsd /[I]). The HLE used in these studies may be obtained from Elastin Products, St. Louis, Mo.) in 0.1 M Tris buffer, pH 8.0.
(§1) The appropriate amount of inhibitor in acetonitrile was mixed with PPE in phosphate buffer solution and placed in a constant temperature bath. Aliquots were withdrawn at different time intervals and transferred to a cuvette containing 100 uL of substrate, 140 uL of acetonitrile, and 2 mL of phosphate buffer, pH 6.5. After incubating for 30 seconds, the absorbance change was monitored for two minutes at 347.5 nm. The inhibitor-to-enzyme ratios varied between 50 and 200, and the incubation intervals were shortened or lengthened depending upon the potency of the inhibitor. Controlled reactions for 100% PPE activity were run in the presence of acetonitrile. A similar procedure was followed for HLE.
(§2) The reaction of an irreversible inhibitor with PPE and HLE may be illustrated by the scheme shown below: [drawing 5] where EI is the noncovalently bound enzyme-inactivator complex and E-I is the final product with the inhibitor covalently bound to the enzyme. The kinetics data were analyzed according to known procedures. The apparent pseudo-first-order inactivation rate constants were determined from the slopes of semilogarithmic plots of enzymatic activity remaining versus time using the following equation: [formula] where Et /EO is the amount of active enzyme remaining after time "t". Inhibition is generally expressed in terms of k3 /Ki, M^-1 s^-1, wherein Ki is the disassociation constant for the enzyme inhibitor complex and k3 is a limiting rate constant for the irreversible loss of enzymatic activity.
Table I below illustrates the inhibition found with assays of nine amino-acid-derived azolides against PPE and HLE.

[2] = molecular target: T1, Human leukocyte elastase (HLE) (Homo sapiens, UniProt P08246); test: Spectrophotometric assay of HLE inactivation (in vitro); type: biochemical
T1 construct: purchased Elastin Products, St. Louis, Mo
T1 sequence (P08246 30-267): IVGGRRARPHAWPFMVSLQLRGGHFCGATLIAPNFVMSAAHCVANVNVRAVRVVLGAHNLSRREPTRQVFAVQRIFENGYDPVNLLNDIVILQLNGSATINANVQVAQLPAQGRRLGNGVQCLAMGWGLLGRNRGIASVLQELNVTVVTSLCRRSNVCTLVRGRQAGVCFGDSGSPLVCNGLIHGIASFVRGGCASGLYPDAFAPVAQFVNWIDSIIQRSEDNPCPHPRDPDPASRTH
Procedure: as §1, with “The inhibitor-to-enzyme ratios varied between 50 and 200, and the incubation intervals were shortened or lengthened depending upon the potency of the inhibitor.” left out
as §2, with “"t".” for “"t". Inhibition is generally expressed in terms of k3 /Ki, M^-1 s^-1, wherein Ki is the disassociation constant for the enzyme inhibitor complex and k3 is a limiting rate constant for the irreversible loss of enzymatic activity.”
The assay procedure used was the procedure identified relative to the tests above in Table I.
(kobsd) were determined by plotting in [E]t /[E]o vs time.

[3] = molecular target: alpha-Chymotrypsin (Bos taurus, UniProt P00766); test: Inactivation of chymotrypsin; type: biochemical; details: for Inhibition of chymotrypsin (in words): comparable conditions
[4] = test system: PPE; details: cited from earlier work; for Irreversible inhibition of PPE (in words): 183rd ACS National Meeting, 1982
[5] = Inactivation of S-ethylcysteine sulfonate salt by oxidants / hydrolysis in buffer; type: physicochemical
Text: In addition, compound 3, Table VI, was exposed to oxidants in vitro and the rates of its inactivation with chloramine-T and H2 O2 compared to buffer alone are summarized in Table VII below. […] The observed rates of inhibitor inactivation are 6 to 12 fold smaller than the rate at which the inhibitor inactivates the enzyme.

[6] = Table I azolides, read-out: Human leukocyte elastase k3 /Ki

Porcine pancreatic elastase (PPE), sequence (P00772 27-266): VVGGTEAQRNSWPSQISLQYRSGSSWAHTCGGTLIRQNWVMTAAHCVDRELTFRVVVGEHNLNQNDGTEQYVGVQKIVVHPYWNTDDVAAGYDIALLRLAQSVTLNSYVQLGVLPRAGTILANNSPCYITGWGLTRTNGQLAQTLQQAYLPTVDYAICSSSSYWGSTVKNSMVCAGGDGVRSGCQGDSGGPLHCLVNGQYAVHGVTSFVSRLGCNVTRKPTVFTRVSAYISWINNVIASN

Compound: COC(=O)[C@@H](NC(=O)n1ccnc1)C(C)C [Compound 3]
Inhibition of PPE (in words) [1]: poor inhibitor; also recorded: little for PPE
Inhibition of HLE (in words) [2]: excellent inhibitor; also recorded: avidity for HLE

Compound: CCC[C@H](NC(=O)S(=O)(=O)O)C(=O)OC [Compound 4, Table II]
Inhibition of chymotrypsin (in words) [3]: no effect
Inhibition of PPE (in words) [1]: no effect
kinact/KI ([2]; Table II monopotassium sulfonate salts, read-out: k2 /Ki (HLE)): 860 M⁻¹ s⁻¹
Inhibition of HLE (in words) ([2]; listed as L-norvaline sulfonate salt): very potent inhibitors; also recorded: effective inhibitors

Compound: CCCCNC(=O)n1ccnc1 [n-butyl derivative]
Inhibition of PPE (in words) ([4]; Biochem. Biophys. Res. Commun. report (1980)): particularly capable of binding to the active site of the enzyme

Compound: CCC[C@H](NC(=O)n1ccnc1)C(=O)OC [Compound 5]
Inhibition of PPE (in words) [1]: little for PPE
kinact/KI [1]: 6.3 M⁻¹ s⁻¹
Inhibition of HLE (in words) [2]: effective inhibitors; also recorded: avidity for HLE
kinact/KI [2, 6]: 500 M⁻¹ s⁻¹

Compound: COC(=O)[C@H](NC(=O)n1ccnc1)C(C)C [Compound 4, Table I]
Irreversible inhibition of PPE (in words) [4]: marginal activity

Compound: CCOC(=O)CNC(=O)n1ccnc1 [glycine ethel ester derivative]
Irreversible inhibition of PPE (in words) [4]: inactive

Compound: CCCC(NC(=O)n1ccnc1)C(=O)OC (racemic) [DL-norvaline methyl ester derivative]
Irreversible inhibition of PPE (in words) [4]: Particularly active

Compound: CCSC[C@H](NC(=O)S(=O)(=O)O)C(=O)OC [Compound 3, Table VI]
kobsd, inactivation of inhibitor ([5]; Chloramine T (0.06 mM), first line): 6.6 × 10^-4 sec ^-1
kobsd, inactivation of inhibitor ([5]; Chloramine T (0.06 mM), second line): 3.2 × 10^-3 sec ^-1
kobsd, inactivation of inhibitor ([5]; H2O2 (1 mM)): 1.2 × 10^-3 sec ^-1
kobsd, inactivation of inhibitor ([5]; Triss buffer, pH 8.0 (0.2 M)): 5.8 × 10^-4 sec ^-1
half life of hydrolysis in buffer solution ([5]; buffer, pH 8.0): twenty
scavenging of oxidants (in words) ([5]; chloramine-T and H2O2): scavenged by the inhibitor in a time dependent and efficient fashion
half life with addition of oxidants (in words) ([5]; chloramine-T, H2O2): shorter half lives
kinact/KI ([2]; Table VI, sulfur-containing amino acid esters, read-out: kobsd /[I], inhibition of HLE): 1800 M⁻¹ s⁻¹

Compound: COC(=O)CNC(=O)n1ccnc1 [Compound 1]
Inhibition of PPE (in words) [1]: failed to deactivate
Inhibition of HLE (in words) [2]: failed to deactivate

Compound: CS(=O)(=O)ON1C(=O)CC(Cc2ccccc2)C1=O (racemic) [BENZYL, OSO2 CH3, (dl)-3-Benzyl-N-(methanesulfonyloxy) succinimide]
kinact/KI ([3]; Table V footnote a, read-out: kobsd /[I], alpha-Chymotrypsin): 9000 M⁻¹ s⁻¹
Inhibition of chymotrypsin (in words) [3]: efficiently inactivated
Inhibition of PPE (in words) [1]: unaffected
kinact/KI ([2]; Table V, succinimide derivatives, read-out: kobsd /[I], inhibition of leukocyte elastase): 1170 M⁻¹ s⁻¹

Compound: CCC[C@@H](NC(=O)S(=O)(=O)O)C(=O)OC [Compound 5, Table II]
Inhibition of HLE (in words) [2]: no inhibitory activity
k2 /Ki (HLE) ([2]; Table II monopotassium sulfonate salts): inactive

Compound: O=C(NCc1cccc(F)c1)S(=O)(=O)O [Compound 12, Table III]
kobsd /[I], inhibition of leukocyte elastase ([2]; Table III, inactive: no inhibition at 243fold excess of inhibitor over enzyme, 10min incubation): inactive

Compound: O=C(NCCc1cccc(C(F)(F)F)c1)n1ccnc1 [Compound 20]
kinact/KI ([2]; Table III, inactive: no inhibition at 243fold excess of inhibitor over enzyme, 10min incubation, read-out: kobsd /[I], inhibition of leukocyte elastase): 483 M⁻¹ s⁻¹

More lines, main results first:

kinact/KI [1]: 2.2 M⁻¹ s⁻¹
kinact/KI [2, 6]: 167 M⁻¹ s⁻¹
Compound: CCCCC(NC(=O)n1ccnc1)C(=O)OC (racemic) [Compound 9, Table I]

kinact/KI [1]: 0.5 M⁻¹ s⁻¹
Inhibition of HLE (in words) [2]: highly effective
Compound: COC(=O)[C@H](CC(C)C)NC(=O)n1ccnc1 [Compound 7, Table I]

Inhibition of PPE (in words) [1]: little for PPE
Compound: CCCCC(NC(=O)n1ccnc1)C(=O)OC (centres unmarked) [Compound 9]
Inhibition of HLE (in words) [2]: effective inhibitors; also recorded: avidity for HLE

Inhibition of PPE (in words) [1]: marginal inhibitory activity
Inhibition of HLE (in words) [2]: marginal inhibitory activity
Compound: COC(=O)[C@H](C)NC(=O)n1ccnc1 [Compound 2]

kinact/KI [1]: 1 M⁻¹ s⁻¹
Compound: CCC(C)[C@H](NC(=O)n1ccnc1)C(=O)OC (some centres unmarked) [Compound 8, Table I]

Inhibition of PPE (in words) [1]: no effect
Inhibition of HLE (in words) [2]: no effect
Compound: COC(=O)[C@H](NC(=O)n1ccnc1)C(C)C [Compound 4]

Inhibition of PPE (in words) [1]: unaffected
Inhibition of HLE (in words) [2]: remarkable specificity and high potency
Inhibition of HLE (in words) ([2]; listed as methionine azolide): highly effective
Compound: COC(=O)[C@H](CCSC)NC(=O)n1ccnc1 [N-(1H-imidazol-1-ylcarbonyl)-methionine methyl ester]

kinact/KI [1]: 2.8 M⁻¹ s⁻¹
kinact/KI [2, 6]: 193 M⁻¹ s⁻¹
Inhibition of HLE (in words) ([2]; listed as L-valine azolide): highly effective
Compound: COC(=O)[C@@H](NC(=O)n1ccnc1)C(C)C [Compound 3, Table I]
Irreversible inhibition of PPE (in words) [4]: Particularly active
